Patent US20210236512A1 (ZARODEX THERAPEUTICS LIMITED, priority 2018, published 2021)

Legend:
[1] = in vivo; cited from earlier work
[2] = system: B cell subsets in bone marrow; assay: Wild type mouse study: bone marrow B cell immunophenotyping by flow cytometry; settings: haloperidol 1 mg/kg IP, 21 days
[3] = system: total peripheral blood B-cells isolated from healthy donors; assay type: cell-based, human; settings: clozapine 25-350 ng/ml, norclozapine 15-200 ng/ml, haloperidol 2-25 ng/ml; for Ability of differentiated ASCs to secrete antibody (total IgM/IgG ELISA): day 6 and day 9
Procedure: The experiment was performed from four independent donors.

[4] = system: B cell subsets and T cells in spleen; assay: Wild type mouse study: spleen immunophenotyping by flow cytometry; settings: haloperidol 1 mg/kg

Structure (SMILES) | LD50 [1] | Early developing B cell subsets in bone marrow (overall B, pre-pro B, pro-B) [2] | Effect on long-lived plasma cells in the bone marrow [2] | Functional or phenotypic maturation of activated B cells to an early PC state [3] | Ability of differentiated ASCs to secrete antibody (total IgM/IgG ELISA) [3] | Reduction of activated T cells (B220+TCR-b+) in spleen [4] | Impact on B cell subpopulations ([4]; comparator)
O=C(CCCN1CCC(O)(c2ccc(Cl)cc2)CC1)c1ccc(F)cc1 [Haloperidol, haloperidol] | 30 mg/kg | no significant effect | no effect | no consistent inhibitory effect | no consistent effect | modestly apparent | not observed
Clc1ccc2c(c1)N=C(N1CCNCC1)c1ccccc1N2 [norclozapine] | – | – | – | no consistent inhibitory effect | no consistent effect | – | –
